# Results reported in patent US20230346654A1, “Anhydrous Urea Emulsions” (BAEK CLINICAL INC., priority 2020, published 2023).
# Like-named read-outs stand apart in the source and are kept apart here.
# How the values were obtained:
# [1] = Assessment of solvents: ability to solubilize urea; settings: neat solvent
# [2] = stated as well-known; cited from earlier work
# [3] = Assessment of solvents: gentleness or irritation on skin; settings: applied to skin; 1,3-propanediol even applied neat, or at 100% concentration
# Description: (§1) AA refers to L-ascorbic acid. U refers to urea. % values are wt %.
# [4] = Solubility of optional additional components in non-aqueous solvents; type: physicochemical
# Description: as §1
# [5] = in most solvents; cited from earlier work
# [6] = in vivo; cited from earlier work
# [7] = concentrations of 0.2%; cited from earlier work
compound,measurement,setting,value
"CCCCC(O)CO (stereo not drawn) [1,2-hexanediol]",ability to solubilize urea,[1],moderate
"CC(O)CO (stereo not drawn) [1,2-propanediol]",skin irritation and sensitivity,[2],inducing skin irritation and sensitivity
same,ability to solubilize urea,[1],moderate
"CC(O)CCO (stereo not drawn) [1,3-butanediol]",gentleness on skin,[3],relatively gentle on skin
"OCCCO [1,3-propanediol]",gentleness on skin,[3],gentleness on skin
"OCCCCCO [1,5-pentanediol]",ability to solubilize urea,[1],moderate
COc1cc(CC(C(C)=O)C(C)=O)ccc1O [Acetyl zingerone],solubility,"[4]; in 1,3 propanediol, 1,2 propanediol and 1,3 butanediol at 0.5-1%",readily soluble
"O=C(O)CCCCCCCC(=O)O [AzA, Azelaic acid, reference compound]",concentration that can be solubilized,"[4]; in 1,3 propanediol",up to 10%
same,"change of solubility in 1,3 propanediol",[4]; in the presence of hydroxyethyl urea,slightly increased
same,concentration that can be solubilized,"[4]; with 10% AA, 5% U in a 1,3 propanediol base",7.5%
same,solubility,[5],very poorly soluble
CO[C@H]1CO[C@H]2[C@@H]1OC[C@H]2OC [Dimethyl isosorbide],ability to solubilize urea,[1],very limited
"OCC(O)CO [Glycerin, glycerol (1,2,3-propanetriol)]",ability to solubilize urea,[1],moderate
CC(C)(CO)[C@@H](O)C(=O)NCCCO [Panthenol],concentration at which inhibition of transepidermal water loss is apparent,[6],≥ 1%
OCC(O)COCC(O)CO (stereo not drawn) [diglycerin],ability to solubilize urea,[1],moderate
"CC1(C)[C@@H](O[C@H]2O[C@H](C(=O)O)[C@@H](O)[C@H](O)[C@H]2O[C@@H]2O[C@H](C(=O)O)[C@@H](O)[C@H](O)[C@H]2O)CC[C@]2(C)[C@H]3C(=O)C=C4[C@@H]5C[C@@](C)(C(=O)O)CC[C@]5(C)CC[C@@]4(C)[C@]3(C)CC[C@@H]12 [glycyrrhizic acid, Glycyrrhizic acid]",solubility,"[4]; in 1,3-propanediol",shows solubility
Madecassoside,solubility,"[4]; at a concentration of 0.2% in 1,3 propanediol, 1,2 propanediol and 1,3 butanediol",soluble
same,ability to reduce erythema (skin redness),[7],desirable ability to reduce erythema
